According to patent US20250099475A1, “METHODS OF TREATING HYPERTENSION BY PERIODIC SUPPRESSION OF ALDOSTERONE SYNTHASE” (Mineralys Therapeutics, Inc., priority 2022, published 2025):
Marks after values point to notes of the source that are not given here.

Key:
[1] = Phase 1 parts 3 and 4: sex- and age-related effects on PK; format: in vivo, human; conditions: single 100-mg dose; not statistically significant
Experimental: Part 3 of the study evaluated the sex-related effects on the safety, tolerability, and PK of Compound A HBr. In 1 cohort of 8 healthy Caucasian women aged 20 to 35 years (inclusive), 6 participants were randomized to receive a single 100-mg dose of Compound A HBr and 2 participants were randomized to receive matching placebo. Compound A HBr or placebo was administered in the fasted state. The results were compared with those in the cohort at the same dose as in Part 1.
Part 4 of the study evaluated the age-related effects on safety, tolerability, and PK of Compound A HBr. In 1 cohort of 8 healthy Caucasian men aged 68 to 80 years, 6 participants were randomized to receive a single 100-mg dose of Compound A HBr and 2 participants were randomized to receive matching placebo. Compound A HBr or placebo were administered in the fasted state. The results were compared with those in the cohort at the same dose as in Part 1.
A linear model was used to analyze log-transformed AUC and Cmax with sex or age as fixed effects. Difference in least square means (LSM) and corresponding 90% CI were back-transformed to obtain the estimates of geometric mean ratios and their CI for females vs. males and ≥65 years vs. <65 years participants.

[2] = Example 4 dose-ranging study: safety (adverse events, serum potassium, eGFR); format: in vivo, human
Experimental: Subjects orally administered the assigned study drug (Compound A HBr or placebo) according to the assigned dosing regimen for 8 weeks beginning on Study Day 1. All subjects in Part 1 (regardless of dosing group) received BID dosing to preserve the integrity of the blind; active drug is administered as the morning dose for all QD dose groups. Subjects returned to the research facility or were seen by the clinical investigator or approved home health care professional at the end of Study Weeks 1, 2, 3, 4, 5, 6, 7, and 8 (±2 days) for protocol-defined efficacy and safety assessments and procedures, assessment of adverse events (AEs), and confirmation of compliance with study drug usage. Subjects also completed a telephone visit and blood pressure (BP) check at home approximately 3 days post last dose of study drug. Subjects attended up to 14 full clinic visits, including a pre-Screening visit, a Screening/start of Placebo Run-in visit, a second visit during Placebo Run-in, a clinic visit to initiate the ABPM procedure, a Randomization visit, 8 weekly visits during double-blind treatment, and an end-of-study visit scheduled 4 weeks after the last study treatment for final efficacy and safety assessments.

[3] = system: 46 targets in receptor binding and enzyme inhibition studies; assay: Pan-receptor screening
Description: Compound A, at a concentration of 10 μmol/L, was screened against 46 targets in receptor binding and enzyme inhibition studies to determine if Compound A interacted with any off-target enzymes or receptors.

[4] = system: cynomolgus monkeys; assay: 13-week repeat-dose oral toxicology study in monkeys; format: in vivo, cynomolgus monkey
Experimental: (§1) The toxicologic profile of Compound A was assessed in several toxicology studies, including 13-week repeat-dose oral studies in Sprague Dawley rats and cynomolgus monkeys, a standard battery of genotoxicity studies, preliminary embryo-fetal development studies in rats and rabbits, and in vitro and in vivo phototoxicity studies. Rats and monkeys were selected for the general toxicology studies on the basis of pharmacology and metabolism data that indicated these animals would have metabolism similar to that of humans. Studies were performed in accordance with GLP regulations.
(§2) Doses in the 13-week toxicology studies were 0, 50, 150, 450 (female), and 600 (male) mg/kg/d in Sprague Dawley rats. In cynomolgus monkeys (females and males), the doses were 0, 10, 30, and 100 mg/kg/d. Hematoxylin-and-eosin-stained sections (nominal thickness of approximately 5 μm) were prepared from the formalin-fixed paraffin-embedded organs/tissues of all animals in the toxicology studies.

[5] = as above; format: in vivo, cynomolgus monkey; conditions: cynomolgus monkey, in vivo, oral
Experimental: as §1, §2

[6] = pooled (Part 1 and Part 2) 100 mg QD safety set (n=60)

CC(=O)N[C@H]1CC[C@H](NC(=O)CN2CCN(c3nncc(-c4ccc(C)cc4)n3)CC2)CC1 [Compound A HBr]
AUC higher in female than in male participants [1]: 19% | AUC lower in men aged ≥65 years vs <65 years [1]: ~12% | Cmax higher in female than in male participants [1]: 25% | Cmax lower in men aged ≥65 years vs <65 years [1]: approximately 14% | Study drug discontinuation: Hyperkalemia, subjects (%) ([2]; 100 mg QD Pooled, N 60): 2 (3.3%) | Study drug discontinuation: Hyponatremia, subjects (%) ([2]; 100 mg QD Pooled, N 60): 1 (1.7%) | Study drug discontinuation: Hypotension, subjects (%) ([2]; 100 mg QD Pooled, N 60): 2 (3.3%) | Study drug discontinuation: Other possibly related, subjects (%) ([2]; 100 mg QD Pooled, N 60): 1 (1.7%) | Study drug discontinuation: Other unrelated, subjects (%) ([2]; 100 mg QD Pooled, N 60): 4 (6.7%) | Individuals with verified or multiple increased Serum K+ 5.2-5.5 mMol/L, number (%) ([2]; 100 mg QD, Part 1): 5 (18.5%) | Individuals with verified or multiple increased Serum K+ 5.6-6.0 mMol/L, number (%) ([2]; 100 mg QD, Part 1): 3 (10.7%) | Individuals with verified or multiple increased Serum K+ 6.1-6.5 mMol/L, number (%) ([2]; 100 mg QD, Part 1): 0 | Individuals with increased Serum K+ >6.5 mMol/L, number ([2]; 100 mg QD, Part 1, isolated incident not verified by repeat measurement): 1* | Individuals with verified or multiple increased Serum K+ 5.2-5.5 mMol/L, number (%) ([2]; 100 mg QD, Part 2): 1 (4%) | Individuals with verified or multiple increased Serum K+ 5.6-6.0 mMol/L, number (%) ([2]; 100 mg QD, Part 2): 0 | Individuals with verified or multiple increased Serum K+ 6.1-6.5 mMol/L, number (%) ([2]; 100 mg QD, Part 2): 0 | Individuals with verified or multiple increased Serum K+ >6.5 mMol/L, number ([2]; 100 mg QD, Part 2): 0 | Individuals with verified or multiple increased Serum K+ 5.2-5.5 mMol/L, number (%) ([2]; 100 mg QD, Pooled): 6 (10.3%) | Individuals with verified or multiple increased Serum K+ 5.6-6.0 mMol/L, number (%) ([2]; 100 mg QD, Pooled): 3 (5.2%) | Individuals with verified or multiple increased Serum K+ 6.1-6.5 mMol/L, number (%) ([2]; 100 mg QD, Pooled): 0 | Individuals with verified or multiple increased Serum K+ >6.5 mMol/L, number ([2]; 100 mg QD, Pooled): 0 | Study drug discontinuation: Hyperkalemia, subjects (%) ([2]; Part 1 100 mg QD, N 29): 2 (6.9%) | Study drug discontinuation: Hyponatremia, subjects (%) ([2]; Part 1 100 mg QD, N 29): 0 | Study drug discontinuation: Hypotension, subjects (%) ([2]; Part 1 100 mg QD, N 29): 1 (3.4%) | Study drug discontinuation: Other possibly related, subjects (%) ([2]; Part 1 100 mg QD, N 29): 1 (3.4%) | Study drug discontinuation: Other unrelated, subjects (%) ([2]; Part 1 100 mg QD, N 29): 3 (6.0%) | Change in group mean serum potassium (K+), Mean ([2]; Part 1, N 26 (dose not given)): +0.50 mMol/L | Study drug discontinuation: Hyperkalemia, subjects (%) ([2]; Part 1 All active, N 159): 6 (3.8%) | Study drug discontinuation: Hyponatremia, subjects (%) ([2]; Part 1 All active, N 159): 0 | Study drug discontinuation: Hypotension, subjects (%) ([2]; Part 1 All active, N 159): 2 (1.2%) | Study drug discontinuation: Other possibly related, subjects (%) ([2]; Part 1 All active, N 159): 1 (0.6%) | Study drug discontinuation: Other unrelated, subjects (%) ([2]; Part 1 All active, N 159): 11 (6.9%) | Study drug discontinuation: Hyperkalemia, subjects (%) ([2]; Part 2 100 mg QD, N 31): 0 | Study drug discontinuation: Hyponatremia, subjects (%) ([2]; Part 2 100 mg QD, N 31): 1 (3.4%) | Study drug discontinuation: Hypotension, subjects (%) ([2]; Part 2 100 mg QD, N 31): 1 (2.8%) | Study drug discontinuation: Other possibly related, subjects (%) ([2]; Part 2 100 mg QD, N 31): 0 | Study drug discontinuation: Other unrelated, subjects (%) ([2]; Part 2 100 mg QD, N 31): 1 (2.8%) | Change in group mean serum potassium (K+), Mean ([2]; Part 2, N 31 (dose not given)): +0.23 mMol/L | Change in group mean serum potassium (K+), Mean ([2]; Pooled, N 57 (dose not given)): +0.35 mMol/L | Study drug discontinuation: Hyperkalemia, subjects (%) ([2]; Total active, N 190): 6 (3.2%) | Study drug discontinuation: Hyponatremia, subjects (%) ([2]; Total active, N 190): 1 (0.5%) | Study drug discontinuation: Hypotension, subjects (%) ([2]; Total active, N 190): 3 (1.6%) | Study drug discontinuation: Other possibly related, subjects (%) ([2]; Total active, N 190): 1 (0.5%) | Study drug discontinuation: Other unrelated, subjects (%) ([2]; Total active, N 190): 12 (6.3%) | change in eGFR ([2]; dosing cohorts): dose-dependent and reversible reduction in eGFR | effects on serum cortisol [2, 6]: no effects on serum cortisol | episodes of hyperkalemia [2, 6]: few episodes of mild or moderate hyperkalemia and no episodes of severe hyperkalemia | serious adverse events (SAEs) related to the study medication ([2]; whole trial): No serious adverse events (SAEs) related to the study medication

CC(=O)N[C@H]1CC[C@H](NC(=O)CN2CCN(c3nncc(-c4ccc(C)cc4)n3)CC2)CC1 [Compound A]
inhibition of 46 primary molecular target receptors or enzymes ([3]; 10 μmol/L): did not substantially inhibit | IC50 ([3]; any of 46 targets, read-out: IC50 for off-target receptors or enzymes): > 10 µM | effects on electrocardiogram values ([4]; doses up to 100 mg/kg/d): no Compound A-related effects | effect on cortisol ([4]; monkeys): no effects on cortisol | adrenal findings ([4]; monkeys, all dose levels (10, 30, 100 mg/kg/d)): Hypertrophy of zona glomerulosa cells in the adrenal cortices and decreased PACs | NOAEL at 13 weeks ([5]; female monkeys): 10 mg/kg/day | NOAEL at 13 weeks ([5]; male monkeys): 30 mg/kg/day
